Values after ≈ are worked out from the molar mass of the structure shown. Like-named read-outs stand apart in the source and are kept apart here.
Legend:
[1] = Solubility by isothermal saturation (shake flask) method; format: physicochemical
Procedure: Solubility of drug was measured by the classical shake flask method at five temperatures: 293, 298, 303, 308 and 313 ± 0.2 K. This method determines the concentration of a test substance in a saturated solution, i.e., in equilibrium with the solid phase at a strictly fixed temperature. The compound studied and the selected solvent were placed into glass ampoules and stirred in an air thermostat.
The solid phase was sedimentated after stirring within 2 h. Then, the solutions were centrifuged using a thermostatic centrifuge Biofuge Stratos (Thermo scientific, Germany) at the appropriate temperature of the experiment for 5 min. The solid phase was removed by filtration using a filter MILLEX®HA 0.22 μm (Millipore, Ireland). The resulting solution, if necessary, was diluted with an appropriate solvent and examined on a Carry 50 spectrophotometer (Varian, Palo Alto, CA, USA, Software Version 3.00 (339)) in the ultraviolet region of the spectrum (operating wavelength range λ = 200–400 nm) with an accuracy of 2–4%.
The experimental value of solubility is an average value of three independent experiments. The absorption maximums for isavuconazole in the selected solvents have been determined at 274 nm in buffers solutions (Figure 4) and as 283 nm in hexane and alcohols (Figure S8). The calibration was carried out at room temperature using the solutions with known concentrations of drug in selected solvents.
The mole fraction concentration was calculated based on molarity (S, mol·L^−1) using Equation (8):(8) x=M2S/S(M2−M1)+1000ρ, where M1 and M2 are the molar masses of […], respectively, and ρ (g·cm^−3) is the density of the pure solvents. Densities of buffers solutions (pH 1.2, 2.0 and 7.4) were measured using densitometer DMA 4500 (Anton Paar, Austria) and published earlier. The values of densities using for conversion are given in Table S4 (Supporting Information).

[2] = Dissolution thermodynamics: ideal solubility, activity coefficients at infinite dilution, excess functions; format: physicochemical
Excerpt: The temperature dependence of solute solubility is described by the thermodynamic relationship:(26) lnx=lnxid−lnγ=ΔmH/RT[T−Tm/T]+∫TmT∫TmT(CpL−CpS)dT/RT^2−lnγ where x, xid, γ, Tm, ΔmH, ΔCp=CpL−CpS , R, and T represent the solubility mole fraction of the solute in solution, ideal mole fraction solubility of the solute, activity coefficient of the solute in solution, melting temperature of the solute, enthalpy of melting of the pure solute, differential molar heat capacity of the pure solute, gas constant and temperature, respectively. If the solubility or equilibrium mole fraction of a compound in solvents studied is low, it is assumed that the last term in Equation (26) denotes the infinite dilution activity coefficient lnγ^∞, which can be expressed as:(27) lnγ∞=ΔHsolE/RT−ΔSsolE/R where ΔHsolE and ΔSsolE represent the partial molar excess enthalpy, and partial molar excess entropy, respectively, and are assumed to be temperature independent. As the quantity ΔCp is assumed to be negligible and considered to be zero [52], substituting ΔCp = 0 into Equation (26) simplifies to (28) lnxid=−ΔHm/RTmln[Tm/T]

- solubility ([1]; aqueous buffer solutions, pH 7.4, buffers pH 7.4, 2.0, 1.2, 298.15 K, read-out: solubility in aqueous buffer solutions): 8.13 to 42.4 µM (≈ 3.56 to 18.5 µg/mL)
- solubility ([1]; buffer pH 7.4, pH 7.4, aqueous buffer, thermodynamic from solid, buffer pH 7.4, 293.15 K, read-out: solubility S·10^6): 6.67 µM (≈ 2.92 µg/mL)
- solubility ([1]; buffer pH 7.4, pH 7.4, aqueous buffer, thermodynamic from solid, buffer pH 7.4, 298.15 K, read-out: solubility S·10^6): 8.13 µM (≈ 3.56 µg/mL)
- solubility ([1]; buffer pH 7.4, pH 7.4, aqueous buffer, thermodynamic from solid, buffer pH 7.4, 303.15 K, read-out: solubility S·10^6): 10 µM (≈ 4.37 µg/mL)
- solubility ([1]; buffer pH 7.4, pH 7.4, aqueous buffer, thermodynamic from solid, buffer pH 7.4, 308.15 K, read-out: solubility S·10^6): 12.2 µM (≈ 5.32 µg/mL)
- solubility ([1]; buffer pH 7.4, pH 7.4, aqueous buffer, thermodynamic from solid, buffer pH 7.4, 313.15 K, read-out: solubility S·10^6): 14.5 µM (≈ 6.37 µg/mL)
- solubility in buffer pH 7.4 lower than in pH 1.2 ([1]; buffer pH 7.4 vs pH 1.2): 80%
- solubility of uncharged forms in buffer pH 7.4 relative to ionized forms in buffer pH 1.2 ([1]; buffer pH 7.4 vs pH 1.2): five times lower
- solubility ([1]; ethanol, 298.15 K, read-out: solubility): 180000 µM (≈ 78700 µg/mL)
- solubility ([1]; hexane, organic solvent or mixture, thermodynamic from solid, hexane, 293.15 K, read-out: solubility S·10^4): 423 µM (≈ 185 µg/mL)
- solubility ([1]; hexane, organic solvent or mixture, thermodynamic from solid, hexane, 298.15 K, read-out: solubility S·10^4): 537 µM (≈ 235 µg/mL)
- solubility ([1]; hexane, organic solvent or mixture, thermodynamic from solid, hexane, 303.15 K, read-out: solubility S·10^4): 677 µM (≈ 296 µg/mL)
- solubility ([1]; hexane, organic solvent or mixture, thermodynamic from solid, hexane, 308.15 K, read-out: solubility S·10^4): 847 µM (≈ 371 µg/mL)
- solubility ([1]; hexane, organic solvent or mixture, thermodynamic from solid, hexane, 313.15 K, read-out: solubility S·10^4): 1050 µM (≈ 459 µg/mL)
- solubility ([1]; seven solvents (buffers pH 1.2, 2.0, 7.4; hexane; alcohols), seven solvents, 293.15 to 313.15 K, read-out: solubility, span over solvents): 6.7 to 300000 µM (≈ 2.93 to 131000 µg/mL)
- lnγ^∞ ([2]; 1-octanol, 293.15 K): 2.40
- G^E ([2]; 1-octanol, 298.15 K): 1.4 ± 0.048 kcal/mol
- H^E ([2]; 1-octanol, 298.15 K): 0.865 ± 0.024 kcal/mol
- S^E ([2]; 1-octanol, 298.15 K): −7.5 ± 0.3 J·mol^−1·K^−1
- TS^E ([2]; 1-octanol, 298.15 K): -0.533 kcal/mol
- lnγ^∞ ([2]; 1-octanol, 298.15 K): 2.36
- ςH^E ([2]; 1-octanol, 298.15 K): 61.9%
- ςTS^E ([2]; 1-octanol, 298.15 K): 38.1%
- lnγ^∞ ([2]; 1-octanol, 303.15 K): 2.34
- lnγ^∞ ([2]; 1-octanol, 308.15 K): 2.32
- lnγ^∞ ([2]; 1-octanol, 313.15 K): 2.30
- lnγ^∞ ([2]; 1-propanol, 293.15 K): 2.16
- G^E ([2]; 1-propanol, 298.15 K): 1.25 ± 0.048 kcal/mol
- H^E ([2]; 1-propanol, 298.15 K): 1.19 ± 0.024 kcal/mol
- S^E ([2]; 1-propanol, 298.15 K): −0.9 ± 0.04 J·mol^−1·K^−1
- TS^E ([2]; 1-propanol, 298.15 K): -0.0669 kcal/mol
- lnγ^∞ ([2]; 1-propanol, 298.15 K): 2.12
- ςH^E ([2]; 1-propanol, 298.15 K): 94.7%
- ςTS^E ([2]; 1-propanol, 298.15 K): 5.3%
- lnγ^∞ ([2]; 1-propanol, 303.15 K): 2.09
- lnγ^∞ ([2]; 1-propanol, 308.15 K): 2.06
- lnγ^∞ ([2]; 1-propanol, 313.15 K): 2.03
- lnγ^∞ ([2]; buffer pH 1.2, 293.15 K): 11.51
- G^E ([2]; buffer pH 1.2, 298.15 K): 6.84 ± 0.12 kcal/mol
- H^E ([2]; buffer pH 1.2, 298.15 K): -1.54 ± 0.024 kcal/mol
- S^E ([2]; buffer pH 1.2, 298.15 K): −117.5 ± 4.1 J·mol^−1·K^−1
- TS^E ([2]; buffer pH 1.2, 298.15 K): -8.372 kcal/mol
- lnγ^∞ ([2]; buffer pH 1.2, 298.15 K): 11.55
- ςH^E ([2]; buffer pH 1.2, 298.15 K): 15.3%
- ςTS^E ([2]; buffer pH 1.2, 298.15 K): 84.7%
- lnγ^∞ ([2]; buffer pH 1.2, 303.15 K): 11.59
- lnγ^∞ ([2]; buffer pH 1.2, 308.15 K): 11.64
- lnγ^∞ ([2]; buffer pH 1.2, 313.15 K): 11.67
- lnγ^∞ ([2]; buffer pH 2.0, 293.15 K): 12.82
- G^E ([2]; buffer pH 2.0, 298.15 K): 7.58 ± 0.14 kcal/mol
- H^E ([2]; buffer pH 2.0, 298.15 K): 1.24 ± 0.072 kcal/mol
- S^E ([2]; buffer pH 2.0, 298.15 K): −88.9 ± 5.1 J·mol^−1·K^−1
- TS^E ([2]; buffer pH 2.0, 298.15 K): -6.334 kcal/mol
- lnγ^∞ ([2]; buffer pH 2.0, 298.15 K): 12.80
- ςH^E ([2]; buffer pH 2.0, 298.15 K): 16.4%
- ςTS^E ([2]; buffer pH 2.0, 298.15 K): 83.6%
- lnγ^∞ ([2]; buffer pH 2.0, 303.15 K): 12.76
- lnγ^∞ ([2]; buffer pH 2.0, 308.15 K): 12.72
- lnγ^∞ ([2]; buffer pH 2.0, 313.15 K): 12.69
- lnγ^∞ ([2]; buffer pH 7.4, 293.15 K): 13.26
- G^E ([2]; buffer pH 7.4, 298.15 K): 7.82 ± 0.14 kcal/mol
- H^E ([2]; buffer pH 7.4, 298.15 K): 1.7 ± 0.024 kcal/mol
- S^E ([2]; buffer pH 7.4, 298.15 K): −85.9 ±2.9 J·mol^−1·K^−1
- TS^E ([2]; buffer pH 7.4, 298.15 K): -6.12 kcal/mol
- lnγ^∞ ([2]; buffer pH 7.4, 298.15 K): 13.21
- ςH^E ([2]; buffer pH 7.4, 298.15 K): 21.7%
- ςTS^E ([2]; buffer pH 7.4, 298.15 K): 78.3%
- lnγ^∞ ([2]; buffer pH 7.4, 303.15 K): 13.15
- lnγ^∞ ([2]; buffer pH 7.4, 308.15 K): 13.11
- lnγ^∞ ([2]; buffer pH 7.4, 313.15 K): 13.08
- entropy term ζTS^E ([2]; buffer solutions): > 78%
- lnγ^∞ ([2]; ethanol, 293.15 K): 2.00
- G^E ([2]; ethanol, 298.15 K): 1.15 ± 0.024 kcal/mol
- H^E ([2]; ethanol, 298.15 K): 1.72 ± 0.024 kcal/mol
- S^E ([2]; ethanol, 298.15 K): 8.0 ± 0.3 J·mol^−1·K^−1
- TS^E ([2]; ethanol, 298.15 K): 0.569 kcal/mol
- lnγ^∞ ([2]; ethanol, 298.15 K): 1.95
- ςH^E ([2]; ethanol, 298.15 K): 75.2%
- ςTS^E ([2]; ethanol, 298.15 K): 24.8%
- lnγ^∞ ([2]; ethanol, 303.15 K): 1.91
- lnγ^∞ ([2]; ethanol, 308.15 K): 1.86
- lnγ^∞ ([2]; ethanol, 313.15 K): 1.81
- lnγ^∞ ([2]; hexane, 293.15 K): 7.12
- G^E ([2]; hexane, 298.15 K): 4.16 ± 0.072 kcal/mol
- H^E ([2]; hexane, 298.15 K): 3.033 ± 0.024 kcal/mol
- S^E ([2]; hexane, 298.15 K): −15.8 ± 0.4 J·mol^−1·K^−1
- TS^E ([2]; hexane, 298.15 K): -1.13 kcal/mol
- lnγ^∞ ([2]; hexane, 298.15 K): 7.03
- ςH^E ([2]; hexane, 298.15 K): 72.9%
- ςTS^E ([2]; hexane, 298.15 K): 27.1%
- lnγ^∞ ([2]; hexane, 303.15 K): 6.95
- lnγ^∞ ([2]; hexane, 308.15 K): 6.86
- lnγ^∞ ([2]; hexane, 313.15 K): 6.79
SMILES: C[C@@H](c1nc(-c2ccc(C#N)cc2)cs1)[C@](O)(Cn1cncn1)c1cc(F)ccc1F [IVZ, Isavuconazole]

— paper PMC8398847, “Isavuconazole: Thermodynamic Evaluation of Processes Sublimation, Dissolution and Partition in Pharmaceutically Relevant Media” (Molecules, 2021)
